Measured values taken from article PMC4604124, “In Vitro Characterization of the Pharmacological Properties of the Anti-Cancer Chelator, Bp4eT, and Its Phase I Metabolites” (PLoS ONE, 2015).
Where “and” joins values, the source holds several entries; their conditions need not be identical. Equal values may be shown once. Read-outs that look alike come from different tables or passages of the source.

Assays:
[1] = system: MCF-7 human breast adenocarcinoma cells; test: MTT cytotoxicity assay, MCF-7 cells; assay type: cell-based; conditions: for IC50: MTT, read-out: IC50
Experimental: (§1) For cytotoxicity experiments, cancer cells were seeded at a density of 5,000 (MCF-7), 10,000 (HL-60) or 2,000 cells/well (HCT116 and A549) in 96-well plates (TPP) for 24 h/37°C prior to the addition of examined agents. The non-cancerous cells, 3T3 and H9c2 cells, were cultured for 24 h/37°C in 96-well plates at a density of 10,000 cells/well, the medium was then changed to serum- and pyruvate-free DMEM (Sigma-Aldrich) and incubated with the cells for another 24 h/37°C. The cytotoxic effects of Bp4eT and its metabolites were studied at different concentrations after a 72 h/37°C incubation. In order to aid the dissolution of the lipophilic ligands, 0.1% dimethyl sulfoxide (v/v) (DMSO; Sigma-Aldrich) was present in the culture medium of all groups. At this concentration, DMSO had no effect on cellular proliferation or viability.
(§2) The viability of cells were determined using an MTT assay (Sigma-Aldrich) according to previously established methods. The optical density of soluble MTT was measured at λ = 570 nm, subtracting the λ = 690 nm background using a Tecan Infinite 200M plate reader (Tecan Group, Männedorf, Switzerland). The viability or proliferation of experimental groups was expressed as a percentage of the untreated controls (100%).
(§3) SigmaStat for Windows 3.5 (Systat Software, San Jose, CA, USA) statistical software package was utilized to analyze results. The data are expressed as the mean ± SD of a given number of experiments. Statistical significance was determined using a one-way ANOVA with a Bonferroni post-hoc test or Student’s t-test. The results were considered to be statistically significant when p < 0.05. The IC50 values were calculated using CalcuSyn 2.0 software (Biosoft, Cambridge, UK). Cell cycle analysis was evaluated using MultiCycle AV Software (Phoenix Flow Systems, San Diego, CA, USA).

[2] = system: A549 human lung adenocarcinoma cells; test: MTT cytotoxicity assay, A549 cells; assay type: cell-based; conditions: for IC50: MTT
Experimental: as §1, §2, §3

[3] = system: MCF-7 cells prelabeled with 59Fe2-transferrin; test: Mobilization (efflux) of cellular 59Fe; assay type: cell-based, human; parameters: Efflux 59Fe / Efflux 59Fe, Ave: unit not given here
Source text: Human transferrin (Sigma) was labeled with ^56Fe or ^59Fe (PerkinElmer, Massachusetts, USA) to produce ^56Fe2-transferrin or ^59Fe2-transferrin (^59Fe2-Tf), respectively, with a final specific activity of 500 pCi/pmol Fe, as previously described. Unbound ^59Fe was removed by exhaustive vacuum dialysis against a large excess of 0.15 M NaCl buffered to pH 7.4 with 1.4% NaHCO3 by standard methods.
To examine the ability of studied compounds to mobilize cellular ^59Fe from MCF-7 cells, iron efflux experiments were performed using established techniques. In brief, after pre-labeling confluent MCF-7 cells on 6-well plates with 0.75 μM ^59Fe2-Tf for 3 h/37°C, the cells were washed four times with ice-cold PBS and then subsequently incubated with 25 μM of Bp4eT or its metabolites for 3 h/37°C. The overlying medium containing released ^59Fe was then decanted from the cells. Radioactivity was measured in both the cells and the supernatant using a γ-scintillation counter (Wallac Wizard 3, Turku, Finland).

[4] = system: MCF-7 cells; test: Cellular 59Fe uptake from 59Fe2-transferrin; assay type: cell-based, human; parameters: key to Uptake 59Fe, Ave / Uptake 59Fe: % of internalized 59Fe in untreated control cells
In short: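 Confluent MCF-7 cells were incubated 3 h at 37°C with 0.75 μM ⁵⁹Fe₂-transferrin (500 pCi/pmol Fe) plus chelator at 25 μM. Membrane-bound ⁵⁹Fe was released with Pronase (1 mg/mL, 30 min, 4°C). Pronase-insensitive internalized ⁵⁹Fe was expressed as % of untreated control.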

[5] = system: MCF-7 cells; test: Cell cycle analysis by flow cytometry (propidium iodide); assay type: cell-based, human; conditions: 0.1 μM, 72 h, control 33%
Experimental: To examine the effect of the agents on the cell cycle, MCF-7 cells were seeded in 60 mm Petri dishes at a density of 240,000 cells/dish and incubated with Bp4eT or its metabolites for 72 h/37°C. The cells were then harvested, fixed by ethanol and stained by propidium iodide (Molecular Probes, Eugene, OR, USA) for 30 min/37°C, as described previously. Cells were analyzed using Accuri C6 flow cytometer (Becton Dickinson and Company, San Jose, CA USA). Propidium iodide was excited at λex = 488 nm and fluorescence analyzed at λem = 585 nm (FL-2) with a total of 10,000 events collected per analysis.
as §3

Which results are given for `CCN=CNN=C(c1ccccc1)c1ccccn1` [Bp4eA, N ^3-ethyl-N ^1-[phenyl(pyridin-2-yl)methylene]formamidrazone]?
Therapeutic index, IC50 non-cancerous cells / IC50 neoplastic cells ([1]; 3T3/MCF-7): 17.3; Therapeutic index, IC50 non-cancerous cells / IC50 neoplastic cells ([1]; H9c2/MCF-7): 7.0; IC50 ([1]; Homo sapiens, MCF7, 72 h, MCF-7, 72 h/37°C, mean ± SD, n ≥ 4): 59.4 ± 8.9 µM; IC50 ([1]; Homo sapiens, MCF7, MCF-7, 5 000 b/j, průměr (mean)): 59.4 µM; IC50 ([1]; Homo sapiens, MCF7, MCF-7, 5 000 b/j, single experiment (by date)): 69.9 µM; IC50 ([1]; MCF-7, 5 000 b/j, single experiment (by date)): 48.9 µM and 62.4 µM and 56.6 µM; MTT, value relative to 0 μM = 100 ([1]; MCF-7, 5 000 b/j, koncentrace 1 μM, průměr (mean)): 93.04; MTT, value relative to 0 μM = 100 ([1]; MCF-7, 5 000 b/j, koncentrace 1 μM, single experiment (by date)): 90.8485 and 99.965 and 93.7506 and 93.1688 and 87.4567; MTT, value relative to 0 μM = 100 ([1]; MCF-7, 5 000 b/j, koncentrace 3 μM, průměr (mean)): 85.43; MTT, value relative to 0 μM = 100 ([1]; MCF-7, 5 000 b/j, koncentrace 3 μM, single experiment (by date)): 93.874 and 91.0261 and 71.3771; MTT, value relative to 0 μM = 100 ([1]; MCF-7, 5 000 b/j, koncentrace 10 μM, průměr (mean)): 84.39; MTT, value relative to 0 μM = 100 ([1]; MCF-7, 5 000 b/j, koncentrace 10 μM, single experiment (by date)): 92.9139 and 90.5956 and 78.0175 and 76.0291; MTT, value relative to 0 μM = 100 ([1]; MCF-7, 5 000 b/j, koncentrace 30 μM, průměr (mean)): 81.82; MTT, value relative to 0 μM = 100 ([1]; MCF-7, 5 000 b/j, koncentrace 30 μM, single experiment (by date)): 88.8876 and 87.4579 and 79.9984 and 70.9265; MTT, value relative to 0 μM = 100 ([1]; MCF-7, 5 000 b/j, koncentrace 100 μM, průměr (mean)): 26.24; MTT, value relative to 0 μM = 100 ([1]; MCF-7, 5 000 b/j, koncentrace 100 μM, single experiment (by date)): 35.9762 and 29.29 and 21.3398 and 22.2541 and 22.3478; MTT, value relative to 0 μM = 100 ([1]; MCF-7, 5 000 b/j, koncentrace 300 μM, průměr (mean)): 16.91; MTT, value relative to 0 μM = 100 ([1]; MCF-7, 5 000 b/j, koncentrace 300 μM, single experiment (by date)): 19.6559 and 17.473 and 16.628 and 13.8677; MTT, value relative to 0 μM = 100 ([1]; MCF-7, 5 000 b/j, koncentrace 1000 μM, průměr (mean)): 14.02; MTT, value relative to 0 μM = 100 ([1]; MCF-7, 5 000 b/j, koncentrace 1000 μM, single experiment (by date)): 14.4001 and 13.0033 and 14.9518 and 13.7358; Therapeutic index, IC50 non-cancerous cells / IC50 neoplastic cells ([2]; 3T3/A549): 5.0; MTT, relative to control (0 = 100) ([2]; A549, 2 000 b/j, 1 μM, průměr (mean), sheet Bp4eA): 94.41; MTT, relative to control (0 = 100) ([2]; A549, 2 000 b/j, 1 μM, single experiment (date), sheet Bp4eA): 88.8209 and 94.4571 and 96.7337 and 97.6446; MTT, relative to control (0 = 100) ([2]; A549, 2 000 b/j, 3 μM, průměr (mean), sheet Bp4eA): 94.09; MTT, relative to control (0 = 100) ([2]; A549, 2 000 b/j, 3 μM, single experiment (date), sheet Bp4eA): 86.5333 and 93.7511 and 98.3115 and 97.7691; MTT, relative to control (0 = 100) ([2]; A549, 2 000 b/j, 10 μM, průměr (mean), sheet Bp4eA): 92.78; MTT, relative to control (0 = 100) ([2]; A549, 2 000 b/j, 10 μM, single experiment (date), sheet Bp4eA): 86.1682 and 92.0865 and 96.0506 and 96.8227; MTT, relative to control (0 = 100) ([2]; A549, 2 000 b/j, 30 μM, průměr (mean), sheet Bp4eA): 91.20; MTT, relative to control (0 = 100) ([2]; A549, 2 000 b/j, 30 μM, single experiment (date), sheet Bp4eA): 88.1425 and 87.7957 and 97.6861 and 91.1602; MTT, relative to control (0 = 100) ([2]; A549, 2 000 b/j, 100 μM, průměr (mean), sheet Bp4eA): 77.56; MTT, relative to control (0 = 100) ([2]; A549, 2 000 b/j, 100 μM, single experiment (date), sheet Bp4eA): 74.9089 and 76.0742 and 86.7011 and 72.5654; MTT, relative to control (0 = 100) ([2]; A549, 2 000 b/j, 300 μM, průměr (mean), sheet Bp4eA): 45.10; MTT, relative to control (0 = 100) ([2]; A549, 2 000 b/j, 300 μM, single experiment (date), sheet Bp4eA): 48.1515 and 41.8857 and 54.342 and 36.0376; MTT, relative to control (0 = 100) ([2]; A549, 2 000 b/j, 1000 μM, průměr (mean), sheet Bp4eA): 7.31; MTT, relative to control (0 = 100) ([2]; A549, 2 000 b/j, 1000 μM, single experiment (date), sheet Bp4eA): 9.28 and 7.437 and 7.169 and 5.37; IC50 ([2]; A549, 2 000 b/j, single experiment (date), sheet Bp4eA): 183 µM and 273 µM and 169 µM; Therapeutic index, IC50 non-cancerous cells / IC50 neoplastic cells ([2]; H9c2/A549): 2.0; IC50 ([2]; Homo sapiens, A549, 72 h, A549, 72 h/37°C, mean ± SD, n ≥ 4): 207 ± 46.1 µM; IC50 ([2]; Homo sapiens, A549, A549, 2 000 b/j, průměr (mean), sheet Bp4eA): 207 µM; IC50 ([2]; Homo sapiens, A549, A549, 2 000 b/j, single experiment (date), sheet Bp4eA): 202 µM; Efflux 59Fe, Ave ([3]; average of all replicates): 3.53; Efflux 59Fe ([3]; single replicate (three per date)): 4.0325 and 2.6377 and 3.5208 and 3.7889 and 3.2967 and 3.9821 and 3.9608 and 3.1218 and 3.4276; Internalized 59Fe uptake, % of the control ([4]; 25 μM, 3 h/37°C, MCF-7, 0.75 μM 59Fe2-Tf): comparable to the untreated control; Uptake 59Fe, Ave ([4]; average of all replicates, Control Ave = 100): 93.4629; Uptake 59Fe ([4]; single replicate (three per date), Control Ave = 100): 92.0297 and 96.1364 and 98.7564 and 74.0112 and 96.1871 and 80.6939 and 103.039 and 106.85; Percentage of cells in the G2/M phase [5]: slight, but significant (p < 0.01–0.05) decrease
